biological target: T1, Human CXCR3 (N-delta 4) (Homo sapiens, UniProt P49682); test: Human CXCR3 (N-delta 4) scintillation proximity assay (SPA), [125I] IP-10 binding to Ba/F3-hCXCR3 membranes; settings: IC50 rating; 25 pM [125I] IP-10, membranes of Ba/F3 cells expressing human CXCR3 (N-delta 4)
T1 construct: CD8 leader (N); Flag tag; expressed in transfected cells; membranes prepared
T1 sequence (P49682 5-368 limits assumed): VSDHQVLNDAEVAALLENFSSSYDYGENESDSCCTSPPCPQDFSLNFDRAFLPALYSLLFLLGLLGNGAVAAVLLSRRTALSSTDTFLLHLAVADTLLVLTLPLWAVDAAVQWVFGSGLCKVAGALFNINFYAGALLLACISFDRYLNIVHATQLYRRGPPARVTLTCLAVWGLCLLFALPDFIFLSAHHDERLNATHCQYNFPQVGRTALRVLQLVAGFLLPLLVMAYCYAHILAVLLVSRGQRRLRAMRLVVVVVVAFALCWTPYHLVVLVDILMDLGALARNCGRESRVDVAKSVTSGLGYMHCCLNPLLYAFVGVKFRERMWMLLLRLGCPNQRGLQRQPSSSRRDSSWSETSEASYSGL
Description: The inventive compounds can readily be evaluated to determine activity at The CXCR3 receptors by known methods, such as, for example, Development of Human CXCR3 (N-delta 4) Binding Assay.
Cloning and Expression of Human CXCR3 (N-delta 4):
The DNA encoding human CXCR3 was cloned by PCR using human genomic DNA (Promega, Madison, Wis.) as a template. The PCR primers were designed based on the published sequence of human orphan receptor GPR9 (1) with incorporated restriction sites, a Kozak consensus sequence, CD8 leader and Flag tag. The PCR product was subcloned into the mammalian expression vector pME18Sneo, a derivative of the SR-alpha expression vector (designated as pME18Sneo-hCXCR3 (N-delta 4).
IL-3-dependent mouse pro-B cells Ba/F3 were transfected by electroporation in 0.4 ml Dulbecco's PBS containing 4×10^6 cells with 20 μg of pME18Sneo-hCXCR3 (N-delta 4) plasmid DNA. Cells were pulsed at 400 Volts, 100 OHMs, 960 μFd. The transfected cells were under selection with 1 mg/ml G418 (Life Technologies, Gaithersburg, Md.). G418-resistant Ba/F3 clones were screened for CXCR3 expression by specific binding of [^125I] IP-10 (NEN Life Science Products, Boston, Mass.).
Preparation of Ba/F3-hCXCR3 (N-delta 4) Membranes
Ba/F3 cells expressing human CXCR3 (N-delta 4) were pelleted and resuspended in the lysis buffer containing 10 mM HEPES, pH 7.5 and Complete® protease inhibitors (1 tablet per 100 ml) (Boehringer Mannheim, Indianapolis, Ind.) at a cell density of 20×10^6 cells per ml. After 5 minutes incubation on ice, cells were transferred to 4639 cell disruption bomb (Parr Instrument, Moline, Ill.) and applied with 1,500 psi of nitrogen for 30 minutes on ice. Large cellular debris was removed by centrifugation at 1,000×g. Cell membrane in the supernatant was sedimented at 100,000×g. The membrane was resuspended in the lysis buffer supplemented with 10% sucrose and stored at −80° C. Total protein concentration of the membrane was determined by BCA method from Pierce (Rockford, Ill.).
Human CXCR3 (N-delta 4) Scintillation Proximity Assay (SPA)
For each assay point, 2 μg of membrane was preincubated for 1 hr with 300 μg wheat germ agglutinin (WGA) coated SPA beads (Amersham, Arlington Heights, Ill.) in the binding buffer (50 mM HEPES, 1 mM CaCl2, 5 mM MgCl2, 125 mM NaCl, 0.002% NaN3, 1.0% BSA) at room temperature. The beads were spun down, washed once, resuspended in the binding buffer and transferred to a 96-well Isoplate (Wallac, Gaithersburg, Md.). 25 pM of [^125I] IP-10 with tested compounds in a series of titration were added to start the reaction. After 3 hr reaction at room temperature, the amount of [^125I] IP-10 bound to the SPA beads was determined with a Wallac 1450 Microbeta counter.
The Ki values for the various example compounds of the present invention are given in the afore-mentioned Table 1. From these values, it would be apparent to the skilled artisan that the compounds of the invention have excellent utility CXCR3 antagonists.

Compound	IC50
CC[C@H]1CN(c2ncc(C(=O)O)nc2Cl)CCN1C1CCN(C(=O)c2ccc(Cl)nc2N)CC1 [compound 99]	> 100 nM
CC[C@H]1CN(c2nc(N)c(C(=O)Nc3cc(O)[nH]n3)nc2Cl)CCN1C1CCN(C(=O)c2ccc(Cl)nc2N)CC1 [compound 100]	> 100 nM
CC[C@H]1CN(c2nc(N)c(C(=O)NC(=N)n3cccn3)nc2Cl)CCN1C1CCN(C(=O)c2ccc(Cl)nc2N)CC1 [compound 101]	> 100 nM
CC[C@H]1CN(c2nc(N)c(C(=O)NN)nc2Cl)CCN1C1CCN(C(=O)c2c(C)noc2C)CC1 [compound 102]	> 100 nM
CC[C@H]1CN(c2nc(N)c(C(=O)NCCO)nc2Cl)CCN1C1CCN(C(=O)c2ccc(C)nc2O)CC1 [compound 103]	> 100 nM
CC[C@H]1CN(c2nc(N)c(C(=O)NCCO)nc2Cl)CCN1C1CCN(Cc2ccc3nccn3c2)CC1 [compound 104]	> 100 nM
CC[C@H]1CN(c2nc(NCC3CC3)c(C(=O)OC)nc2Cl)CCN1C1CCN(C(=O)c2ccc(Cl)nc2N)CC1 [compound 105]	> 100 nM
CC[C@H]1CN(c2nc(N)c(C(=O)NCCO)nc2Cl)CCN1C1CCN(C(=O)c2ccc(C(N)=O)nc2N)CC1 [compound 106]	> 100 nM
CC[C@H]1CN(c2nc(N)c(C(N)=O)nc2Cl)CCN1C1CCN(C(=O)c2ccc(-n3cncn3)nc2)CC1 [compound 107]	> 100 nM
CC[C@H]1CN(c2nc(N)c(C(=O)NC)nc2Cl)CCN1C1CCN(Cc2cc(Cl)nc(Cl)c2)CC1 [compound 108]	> 100 nM
CC[C@H]1CN(c2nc(N)c(C(=O)O)nc2Cl)CCN1C1CCN(C(=O)c2ccc(Cl)nc2N)CC1 [compound 109]	> 100 nM
CC[C@H]1CN(c2nc(N)c(C(=O)NC)nc2Cl)CCN1C1CCN(C(=O)c2ccnc(Cl)c2)CC1 [compound 110]	> 100 nM
CC[C@H]1CN(c2nc(N)c(C(=O)NN)nc2Cl)CCN1C1CCN(S(=O)(=O)c2c(C)noc2C)CC1 [compound 111]	> 100 nM
CC[C@H]1CN(c2nc(N)c(C(=O)NC)nc2Cl)CCN1C1CCN(C(=O)c2cnc(C)cn2)CC1 [compound 112]	> 100 nM
CC[C@H]1CN(c2nc(N)c(C(N)=O)nc2Cl)CCN1C1CCN(CC2COc3ccccc3O2)CC1 (stereo partly shown) [compound 113]	> 100 nM
CC[C@H]1CN(c2nc(N)c(C(N)=O)nc2Cl)CCN1C1CCN(C(=O)c2ccc(Cl)n3ccnc23)CC1 [compound 114]	> 100 nM
CC[C@H]1CN(c2nc(N)c(C(N)=O)nc2Cl)CCN1C1CCN(C(=O)c2ncc(C)nc2N)CC1 [compound 115]	> 100 nM
CC[C@H]1CN(c2nc(N)c(C(=O)NC)nc2Cl)CCN1C1CCN(C(=O)c2cc(Cl)nc(Cl)c2)CC1 [compound 116]	> 100 nM
CC[C@H]1CN(c2nc(N)c(C(=O)NCCO)nc2Cl)CCN1C1CCN(C(=O)c2nccnc2N)CC1 [compound 117]	> 100 nM
CC[C@H]1CN(c2ncc(C(=O)NC(C)C)nc2Cl)CCN1C1CCN(C(=O)c2ccc(Cl)nc2N)CC1 [compound 118]	< 25 nM
CC[C@H]1CN(c2ncc(C(=O)NC3CC3)nc2Cl)CCN1C1CCN(C(=O)c2ccc(Cl)nc2N)CC1 [compound 119]	< 25 nM
CC[C@H]1CN(c2ncc(C(=O)NC(C)(C)C)nc2Cl)CCN1C1CCN(C(=O)c2ccc(Cl)nc2N)CC1 [compound 120]	< 25 nM
CC[C@H]1CN(c2ncc(C(N)=O)nc2C(F)(F)F)CCN1C1CCN(C(=O)c2ccc(Cl)nc2N)CC1 [compound 121]	< 25 nM
CC[C@H]1CN(c2ncc(C(=O)NC)nc2Cl)CCN1C1CCN(C(=O)c2ccc(Cl)nc2N)CC1 [compound 122]	< 25 nM
CC[C@H]1CN(c2ncc(C(=O)NC(C)C)nc2C)CCN1C1CCN(C(=O)c2ccc(Cl)nc2N)CC1 [compound 123]	< 25 nM

Compound	IC50
CC[C@H]1CN(c2ncc(C(=O)NCCO)nc2C)CCN1C1CCN(C(=O)c2ccc(Cl)nc2N)CC1 [compound 124]	< 25 nM
CC[C@H]1CN(c2ncc(C(=O)NCCO)nc2Cl)CCN1C1CCN(C(=O)c2ccc(Cl)nc2N)CC1 [compound 125]	< 25 nM
CCNC(=O)c1cnc(N2CCN(C3CCN(C(=O)c4ccc(Cl)nc4N)CC3)[C@@H](CC)C2)c(C)n1 [compound 126]	< 25 nM
CC[C@H]1CN(c2ncc(C(N)=O)nc2C)[C@H](C)CN1C1CCN(C(=O)c2ccc(Cl)nc2N)CC1 [compound 128]	< 25 nM
CC[C@H]1CN(c2ncc(C(N)=O)nc2C)CCN1C1CCN(C(=O)c2ccc(Cl)nc2N)CC1 [compound 129]	< 25 nM
CC[C@H]1CN(c2nc(N)c(C(=O)Nc3ccncc3)nc2Cl)CCN1C1CCN(C(=O)c2ccc(Cl)nc2N)CC1 [compound 130]	< 25 nM
CC[C@H]1CN(c2nc(N)c(C(=O)NC)nc2Cl)CCN1C1CCN(C(=O)c2ccc(OC)nc2N)CC1 [compound 131]	25 to 100 nM
CC[C@H]1CN(c2nc(N)c(C(=O)Nc3cc(C)[nH]n3)nc2Cl)CCN1C1CCN(C(=O)c2ccc(Cl)nc2N)CC1 [compound 132]	25 to 100 nM
CC[C@H]1CN(c2nc(N)c(C(=O)NCCO)nc2Cl)CCN1C1CCN(C(=O)c2ccc(OC)nc2N)CC1 [compound 133]	25 to 100 nM
CC[C@H]1CN(c2nc(N)c(C(=O)NNC(C)=O)nc2Cl)CCN1C1CCN(C(=O)c2ccc(Cl)nc2N)CC1 [compound 134]	25 to 100 nM
CC[C@H]1CN(c2nc(N)c(C(N)=O)nc2Cl)CCN1C1CCN(C(=O)c2ccc(OC)nc2N)CC1 [compound 135]	25 to 100 nM
CC[C@H]1CN(c2ncc(C(N)=O)nc2C)CCN1C1CCN(C(=O)c2ccc(C)nc2N)CC1 [compound 136]	> 100 nM
CC[C@H]1CN(c2nc(N)c(C(=O)N(C)OC)nc2Cl)CCN1C1CCN(C(=O)c2ccc(Cl)nc2N)CC1 [compound 137]	> 100 nM
CC[C@H]1CN(c2nc(N)c(C(=O)NCCO)nc2Cl)CCN1C1CCN(C(=O)c2ccc(C)nc2Cl)CC1 [compound 138]	> 100 nM
CC[C@H]1CN(c2nc(N)c(C(=O)NC3CC3)nc2Cl)CCN1C1CCN(C(=O)c2sc(C)nc2C)CC1 [compound 139]	> 100 nM
CC[C@H]1CN(c2nc(N)c(C(=O)NC)nc2Cl)CCN1C1CCN(Cc2coc3ccc(Cl)cc3c2=O)CC1 [compound 140]	< 25 nM
CC[C@H]1CN(c2nc(N)c(C(=O)NC3CC3)nc2Cl)CCN1C1CCN(Cc2cc(-c3ccccc3)oc2C)CC1 [compound 141]	< 25 nM
CC[C@H]1CN(c2nc(N)c(C(N)=O)nc2Cl)CCN1C1CCN(Cc2ccc(Cl)c3nc(C(F)(F)F)[nH]c23)CC1 [compound 142]	> 100 nM
CC[C@H]1CN(c2nc(N)c(C(N)=O)nc2Cl)CCN1C1CCN(Cc2ccc(Cl)c3[nH]c(=O)[nH]c23)CC1 [compound 143]	> 100 nM
CC[C@H]1CN(c2nc(N)c(C(=O)NC)nc2Cl)CCN1C1CCN(Cc2coc3cc(C)c(Cl)cc3c2=O)CC1 [compound 144]	< 25 nM
CC[C@H]1CN(c2nc(N)c(C(=O)NC3CC3)nc2Cl)CCN1C1CCN(Cc2cnc(-c3ccccc3)nc2C)CC1 [compound 145]	> 100 nM
CC[C@H]1CN(c2nc(N)c(C(N)=O)nc2Cl)CCN1C1CCN(C2OC(C(=O)N(C)C)c3cc(Cl)ccc32)CC1 (stereo partly shown) [compound 147]	25 to 100 nM
CC[C@H]1CN(c2nc(N)c(C(=O)NCCO)nc2Cl)CCN1C1CCN(C2CCOc3cc(C#N)ccc32)CC1 (stereo partly shown) [compound 148]	> 100 nM
CC[C@H]1CN(c2nc(N)c(C(=O)Nc3ccc(Cl)cc3)nc2Cl)CCN1C1CCN(C(=O)c2ccc(Cl)nc2N)CC1 [compound 149]	< 25 nM

From patent US7879838B2, “Heteroaryl substituted pyrazinyl-piperazine-piperidines with CXCR3 antagonist activity” (Schering Corporation, priority 2005, dated 2011)
